In the experiment the target is MDM2 (Homo sapiens, UniProt Q00987). The experiment in a line: MDM2 binding screen: displacement of fluorescent p53 peptide probe FP53 (fluorescence polarization). As to conditions: crude macrocycle reactions; for fraction fluorescent probe displaced, Screen: initial screen. The protocol:
We screened Library 2 in 384-microwell plates by dispensing the target protein MDM2 and reporter peptide into the wells containing the macrocycle reactions.
The products were screened for displacement of a p53-based fluorescent peptide from human MDM2. Final macrocycle concentrations were 10 µM. For each macrocycle, the MDM2 binding was measured once.
One fluorescence anisotropy reading was taken with a Tecan Infinite F200 Pro fluorescence plate reader (excitation at 485 nm, emission at 535 nm) at 25 °C. Data was collected and exported using the Tecan Infinite M200 Pro instrument software. The data was analyzed by Excel (version 2016).
In general terms: Fluorescence polarisation rises when a labelled molecule tumbles more slowly, as on binding a larger partner.

Numbered stars: 1 amine (or outer) side, 2 acyl side, 3 side chain; on linkers, the order of the positions; unused ones are H or OH. Bridge positions count the residues as written; N and C are the ends. Square brackets hold non-standard residues; d marks the D form. Peptide text beside a SMILES is read from it. * marks the point of attachment. ξ: configuration not given here. ξPro(4-NHCO(5-Cl-2-thienyl)) = O=C(NC1CNC(C(=O)O)C1)c1ccc(Cl)s1; ξPro(4ξ-NHCOC6H4-4-Cl) = O=C(NC1CNC(C(=O)O)C1)c1ccc(Cl)cc1; 2Thenoyl(5-Cl) = O=C(c1ccc(Cl)s1)*; Benzoyl(4-Cl) = O=C(c1ccc(Cl)cc1)*; Cysteamide = C(CS[*:3])N[*:1]; X1 = O=C(/C=C/c1ccccc1)*; Api = NC1(C(=O)O)CCNCC1; Dap = NC[CH](N)C(=O)O; X2 = O=C(C=Cc1ccccc1)*; Mpa = O=C(O)CCS

MDM2, sequence (Q00987 whole entry): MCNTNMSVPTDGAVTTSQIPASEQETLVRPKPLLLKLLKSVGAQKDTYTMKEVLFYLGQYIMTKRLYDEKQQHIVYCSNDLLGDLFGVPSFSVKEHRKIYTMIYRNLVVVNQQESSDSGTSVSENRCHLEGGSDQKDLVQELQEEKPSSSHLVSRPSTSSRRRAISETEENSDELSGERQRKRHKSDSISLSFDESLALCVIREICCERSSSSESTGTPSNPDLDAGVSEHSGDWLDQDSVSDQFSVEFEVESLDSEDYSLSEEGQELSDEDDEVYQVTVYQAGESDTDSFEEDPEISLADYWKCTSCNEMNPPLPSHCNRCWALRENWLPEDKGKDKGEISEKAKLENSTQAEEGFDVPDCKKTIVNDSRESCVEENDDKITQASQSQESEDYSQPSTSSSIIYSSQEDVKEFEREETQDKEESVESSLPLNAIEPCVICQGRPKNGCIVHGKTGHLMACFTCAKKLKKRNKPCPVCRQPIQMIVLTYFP

As for `O=C(NC[C@@H]1NC(=O)[C@H](Cc2ccccc2)NC(=O)[C@@H]2CCCN2C(=O)CCSSCCNC1=O)c1ccc(Cl)cc1` [X B1 F D3 Acid 25] ([Mpa]PF[Dap](Benzoyl(4-Cl))-Cysteamide; disulfide 1-C), under “Acid 25”, the “fraction fluorescent probe displaced, Screen” value turned out to be 0.09 and the “fraction fluorescent probe displaced, Replicate” value is on record as 0.20.
In the case of `O=C(NC1CC2C(=O)NCCSSCCC(=O)N3CCCC3C(=O)NC(Cc3ccccc3)C(=O)N2C1)c1ccc(Cl)s1` (stereo not shown) [X B1 F D5 Acid 14] ([Mpa]PF[ξPro(4-NHCO(5-Cl-2-thienyl))]-Cysteamide; disulfide 1-C; configuration not given here), where the note is “Acid 14”, the “fraction fluorescent probe displaced, Screen” value was found to be 0.11 and the “fraction fluorescent probe displaced, Replicate” value came to 0.07.
On the same counts, the results for `O=C1NC2(CCN(C(=O)c3ccc(Cl)s3)CC2)C(=O)NCCSSCCC(=O)N2CCCC2C(=O)NC1Cc1ccccc1` (stereo not shown) [X B1 F D6 Acid 14] ([Mpa]PF[Api](2Thenoyl(5-Cl))-Cysteamide; disulfide 1-C; configuration not given here) are 0.08 and 0.07.
On to `O=C1NC2(CCN(C(=O)c3ccc(Cl)cc3)CC2)C(=O)NCCSSCCC(=O)N2CCC[C@H]2C(=O)N[C@H]1Cc1ccccc1` [X B1 F D6 Acid 25] ([Mpa]PF[Api](Benzoyl(4-Cl))-Cysteamide; disulfide 1-C), for which, where the note is “Acid 25”, the “fraction fluorescent probe displaced, Screen” value is 0.09 and the “fraction fluorescent probe displaced, Replicate” value turned out to be 0.15.
Consider `O=C1NC2(CCN(C(=O)C=Cc3ccccc3)CC2)C(=O)NCCSSCCC(=O)N2CCCC2C(=O)NC1Cc1ccccc1` (stereo not shown) [X B1 F D6 Acid 91] ([Mpa]PF[Api](X2)-Cysteamide; disulfide 1-C; configuration not given here), for which, where the note is “Acid 91”, the “fraction fluorescent probe displaced, Screen” value worked out at 0.00268 and the “fraction fluorescent probe displaced, Replicate” value is reported as 0.04.
Turning to `O=C1NC(Cc2ccccc2)C(=O)N2CCN(C(=O)c3ccc(Cl)s3)CC2C(=O)NCCSSCCC(=O)N2CCCC12` (stereo not shown) [X B1 F D7 Acid 14], for the setting “Acid 14”, the “fraction fluorescent probe displaced, Screen” value is recorded as 0.053 and the “fraction fluorescent probe displaced, Replicate” value turned out to be 0.12.
For the compound `O=C1NC(Cc2ccccc2)C(=O)N2CCN(C(=O)c3ccc(Cl)cc3)CC2C(=O)NCCSSCCC(=O)N2CCCC12` (stereo not shown) [X B1 F D7 Acid 25], for the setting “Acid 25”, the “fraction fluorescent probe displaced, Screen” value stood at 0.0244 and the “fraction fluorescent probe displaced, Replicate” value was 0.12.
Consider `O=C(NCC1NC(=O)C(Cc2c[nH]c3ccccc23)NC(=O)C2CCCN2C(=O)CCSSCCNC1=O)c1ccc(Cl)s1` (stereo not shown) [X B1 W D3 Acid 14] ([Mpa]PW[Dap](2Thenoyl(5-Cl))-Cysteamide; disulfide 1-C; configuration not given here), for which, where the note is “Acid 14”, the “fraction fluorescent probe displaced, Screen” value was 0.23 and the “fraction fluorescent probe displaced, Replicate” value is listed as 0.15.
In the case of `O=C(NC[C@@H]1NC(=O)[C@H](Cc2c[nH]c3ccccc23)NC(=O)[C@@H]2CCCN2C(=O)CCSSCCNC1=O)c1ccc(Cl)cc1` [X B1 W D3 Acid 25] ([Mpa]PW[Dap](Benzoyl(4-Cl))-Cysteamide; disulfide 1-C), for the setting “Acid 25”, the “fraction fluorescent probe displaced, Screen” value worked out at 0.25 and the “fraction fluorescent probe displaced, Replicate” value came out at 0.25.
Turning to `O=C(/C=C/c1ccccc1)NC[C@@H]1NC(=O)[C@H](Cc2c[nH]c3ccccc23)NC(=O)[C@@H]2CCCN2C(=O)CCSSCCNC1=O` [X B1 W D3 Acid 91] ([Mpa]PW[Dap](X1)-Cysteamide; disulfide 1-C), for the setting “Acid 91”, the “fraction fluorescent probe displaced, Screen” value was determined as 0.08 and the “fraction fluorescent probe displaced, Replicate” value was found to be 0.04.
Turning to `O=C(NC1CC2C(=O)NCCSSCCC(=O)N3CCCC3C(=O)NC(Cc3c[nH]c4ccccc34)C(=O)N2C1)c1ccc(Cl)cc1` (stereo not shown) [X B1 W D5 Acid 25] ([Mpa]PW[ξPro(4ξ-NHCOC6H4-4-Cl)]-Cysteamide; disulfide 1-C; configuration not given here), for the setting “Acid 25”, the “fraction fluorescent probe displaced, Screen” value was 0.15 and the “fraction fluorescent probe displaced, Replicate” value is given as 0.20.
Consider `O=C1NC2(CCN(C(=O)c3ccc(Cl)s3)CC2)C(=O)NCCSSCCC(=O)N2CCC[C@H]2C(=O)N[C@H]1Cc1c[nH]c2ccccc12` [X B1 W D6 Acid 14] ([Mpa]PW[Api](2Thenoyl(5-Cl))-Cysteamide; disulfide 1-C), for which, for the setting “Acid 14”, the “fraction fluorescent probe displaced, Screen” value is 0.20 and the “fraction fluorescent probe displaced, Replicate” value is reported as 0.12.
With `O=C1NC2(CCN(C(=O)/C=C/c3ccccc3)CC2)C(=O)NCCSSCCC(=O)N2CCC[C@H]2C(=O)N[C@H]1Cc1c[nH]c2ccccc12` [X B1 W D6 Acid 91] ([Mpa]PW[Api](X1)-Cysteamide; disulfide 1-C), where the note is “Acid 91”, the “fraction fluorescent probe displaced, Screen” value stood at 0.14 and the “fraction fluorescent probe displaced, Replicate” value came to 0.07.
On to `O=C1NC(Cc2c[nH]c3ccccc23)C(=O)N2CCN(C(=O)c3ccc(Cl)s3)CC2C(=O)NCCSSCCC(=O)N2CCCC12` (stereo not shown) [X B1 W D7 Acid 14], for which, for the setting “Acid 14”, the “fraction fluorescent probe displaced, Screen” value is 0.08 and the “fraction fluorescent probe displaced, Replicate” value turned out to be 0.15.
Take `O=C1CCSSCCNC(=O)[C@H](Cc2ccccc2)NC(=O)[C@H](CNC(=O)c2ccc(Cl)s2)NC(=O)CCN1` [X B2 D3 F Acid 14]: under “Acid 14”, the “fraction fluorescent probe displaced, Screen” value was -0.00483 and the “fraction fluorescent probe displaced, Replicate” value amounted to 0.0465.
Turning to `O=C1CCSSCCNC(=O)[C@H](Cc2ccccc2)NC(=O)[C@H](CNC(=O)c2ccc(Cl)cc2)NC(=O)CCN1` [X B2 D3 F Acid 25], for the setting “Acid 25”, the “fraction fluorescent probe displaced, Screen” value worked out at 0.0244 and the “fraction fluorescent probe displaced, Replicate” value is -0.0552.
Regarding `O=C(/C=C/c1ccccc1)NC[C@@H]1NC(=O)CCNC(=O)CCSSCCNC(=O)[C@H](Cc2ccccc2)NC1=O` [X B2 D3 F Acid 91], where the note is “Acid 91”, the “fraction fluorescent probe displaced, Screen” value turned out to be 0.0563 and the “fraction fluorescent probe displaced, Replicate” value is reported as -0.00827.
`O=C1CCSSCCNC(=O)[C@H](Cc2c[nH]c3ccccc23)NC(=O)[C@H](CNC(=O)c2ccc(Cl)cc2)NC(=O)CCN1` [X B2 D3 W Acid 25]: for the setting “Acid 25”, the “fraction fluorescent probe displaced, Screen” value came out at 0.19 and the “fraction fluorescent probe displaced, Replicate” value stood at 0.22.
Take `O=C(/C=C/c1ccccc1)NC[C@@H]1NC(=O)CCNC(=O)CCSSCCNC(=O)[C@H](Cc2c[nH]c3ccccc23)NC1=O` [X B2 D3 W Acid 91]: under “Acid 91”, the “fraction fluorescent probe displaced, Screen” value came out at 0.27 and the “fraction fluorescent probe displaced, Replicate” value was determined as 0.14.
For the compound `O=C1CCSSCCNC(=O)[C@H](Cc2ccccc2)NC(=O)[C@@H]2C[C@H](NC(=O)c3ccc(Cl)s3)CN2C(=O)CCN1` [X B2 D5 F Acid 14], for the setting “Acid 14”, the “fraction fluorescent probe displaced, Screen” value is recorded as 0.16 and the “fraction fluorescent probe displaced, Replicate” value was found to be 0.05.
For `O=C1CCSSCCNC(=O)C(Cc2ccccc2)NC(=O)C2CC(NC(=O)c3ccc(Cl)cc3)CN2C(=O)CCN1` (stereo not shown) [X B2 D5 F Acid 25], for the setting “Acid 25”, the “fraction fluorescent probe displaced, Screen” value is on record as 0.16 and the “fraction fluorescent probe displaced, Replicate” value is given as 0.05.
For the compound `O=C(C=Cc1ccccc1)NC1CC2C(=O)NC(Cc3ccccc3)C(=O)NCCSSCCC(=O)NCCC(=O)N2C1` (stereo not shown) [X B2 D5 F Acid 91], under “Acid 91”, the “fraction fluorescent probe displaced, Screen” value was -0.17 and the “fraction fluorescent probe displaced, Replicate” value was -0.08.
Take `O=C1CCSSCCNC(=O)C(Cc2c[nH]c3ccccc23)NC(=O)C2CC(NC(=O)c3ccc(Cl)s3)CN2C(=O)CCN1` (stereo not shown) [X B2 D5 W Acid 14]: under “Acid 14”, the “fraction fluorescent probe displaced, Screen” value amounted to 0.11 and the “fraction fluorescent probe displaced, Replicate” value was 0.17.
As to `O=C(C=Cc1ccccc1)NC1CC2C(=O)NC(Cc3c[nH]c4ccccc34)C(=O)NCCSSCCC(=O)NCCC(=O)N2C1` (stereo not shown) [X B2 D5 W Acid 91], for the setting “Acid 91”, the “fraction fluorescent probe displaced, Screen” value amounted to 0.03 and the “fraction fluorescent probe displaced, Replicate” value is reported as 0.0168.
For `O=C1CCSSCCNC(=O)[C@H](Cc2ccccc2)NC(=O)C2(CCN(C(=O)c3ccc(Cl)s3)CC2)NC(=O)CCN1` [X B2 D6 F Acid 14], under “Acid 14”, the “fraction fluorescent probe displaced, Screen” value stood at 0.13 and the “fraction fluorescent probe displaced, Replicate” value was 0.0229.
`O=C1CCSSCCNC(=O)[C@H](Cc2c[nH]c3ccccc23)NC(=O)C2(CCN(C(=O)/C=C/c3ccccc3)CC2)NC(=O)CCN1` [X B2 D6 W Acid 91]: for the setting “Acid 91”, the “fraction fluorescent probe displaced, Screen” value is recorded as 0.16 and the “fraction fluorescent probe displaced, Replicate” value is 0.07.
Turning to `O=C1CCSSCCNC(=O)C(Cc2c[nH]c3ccccc23)NC(=O)C2CN(C(=O)c3ccc(Cl)s3)CCN2C(=O)CCN1` (stereo not shown) [X B2 D7 W Acid 14], where the note is “Acid 14”, the “fraction fluorescent probe displaced, Screen” value is recorded as 0.17 and the “fraction fluorescent probe displaced, Replicate” value was 0.07.
As for `O=C1CCSSCCNC(=O)C(Cc2c[nH]c3ccccc23)NC(=O)C2CN(C(=O)C=Cc3ccccc3)CCN2C(=O)CCN1` (stereo not shown) [X B2 D7 W Acid 91], where the note is “Acid 91”, the “fraction fluorescent probe displaced, Screen” value amounted to 0.14 and the “fraction fluorescent probe displaced, Replicate” value stood at 0.07.
For the compound `O=C1CCSSCCNC(=O)[C@H](CNC(=O)c2ccc(Cl)s2)NC(=O)[C@H](Cc2ccccc2)NC(=O)CCN1` [X B2 F D3 Acid 14], under “Acid 14”, the “fraction fluorescent probe displaced, Screen” value was 0.0241 and the “fraction fluorescent probe displaced, Replicate” value came out at 0.12.
With `O=C1CCSSCCNC(=O)[C@H](CNC(=O)c2ccc(Cl)cc2)NC(=O)[C@H](Cc2ccccc2)NC(=O)CCN1` [X B2 F D3 Acid 25], for the setting “Acid 25”, the “fraction fluorescent probe displaced, Screen” value is reported as 0.0569 and the “fraction fluorescent probe displaced, Replicate” value is -0.03.
As to `O=C(/C=C/c1ccccc1)NC[C@@H]1NC(=O)[C@H](Cc2ccccc2)NC(=O)CCNC(=O)CCSSCCNC1=O` [X B2 F D3 Acid 91], for the setting “Acid 91”, the “fraction fluorescent probe displaced, Screen” value was 0.03 and the “fraction fluorescent probe displaced, Replicate” value was -0.11.
Turning to `O=C1CCSSCCNC(=O)C2CC(NC(=O)c3ccc(Cl)s3)CN2C(=O)C(Cc2ccccc2)NC(=O)CCN1` (stereo not shown) [X B2 F D5 Acid 14], for the setting “Acid 14”, the “fraction fluorescent probe displaced, Screen” value is reported as 0.14 and the “fraction fluorescent probe displaced, Replicate” value worked out at 0.07.
